The target in one data set is T1, BCRP (Homo sapiens, UniProt Q9UNQ0).
T1 sequence (Q9UNQ0 1-655): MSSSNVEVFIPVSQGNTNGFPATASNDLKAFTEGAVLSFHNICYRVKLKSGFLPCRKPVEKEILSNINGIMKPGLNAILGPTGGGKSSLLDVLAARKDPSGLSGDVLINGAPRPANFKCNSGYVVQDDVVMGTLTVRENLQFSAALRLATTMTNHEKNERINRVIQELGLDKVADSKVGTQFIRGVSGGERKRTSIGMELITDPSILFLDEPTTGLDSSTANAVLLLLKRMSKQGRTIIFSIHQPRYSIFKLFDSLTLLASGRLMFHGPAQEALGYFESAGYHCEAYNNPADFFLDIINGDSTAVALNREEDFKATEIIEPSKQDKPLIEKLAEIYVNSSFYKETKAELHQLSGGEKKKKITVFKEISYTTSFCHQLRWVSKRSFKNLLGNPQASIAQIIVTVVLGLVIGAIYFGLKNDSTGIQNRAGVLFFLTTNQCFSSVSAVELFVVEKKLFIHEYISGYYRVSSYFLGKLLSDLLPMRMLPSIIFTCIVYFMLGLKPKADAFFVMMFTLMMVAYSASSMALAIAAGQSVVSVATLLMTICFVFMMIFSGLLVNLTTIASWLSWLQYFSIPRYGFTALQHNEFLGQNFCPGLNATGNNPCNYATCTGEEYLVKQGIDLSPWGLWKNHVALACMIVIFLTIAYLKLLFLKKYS
Briefly: BCRP inhibition: bidirectional transport of prazosin across MDCKII-BCRP and control MDCKII cells. An excerpt:
MDCKII P-gp, MDCKII BCRP and control MDCKII cells were purchased from the Netherlands Cancer Institute.

In another data set the target is MATE2-K (Homo sapiens, UniProt Q86VL8). The following applies: [14C]-Metformin 10 μM. How it is done: (§1) [^14C]-Metformin (1 mM) was provided as a solid and was prepared in Hank's balanced salt solution (HBSS).
MATE2-K, sequence (Q86VL8 1-566 isoform Q86VL8-3): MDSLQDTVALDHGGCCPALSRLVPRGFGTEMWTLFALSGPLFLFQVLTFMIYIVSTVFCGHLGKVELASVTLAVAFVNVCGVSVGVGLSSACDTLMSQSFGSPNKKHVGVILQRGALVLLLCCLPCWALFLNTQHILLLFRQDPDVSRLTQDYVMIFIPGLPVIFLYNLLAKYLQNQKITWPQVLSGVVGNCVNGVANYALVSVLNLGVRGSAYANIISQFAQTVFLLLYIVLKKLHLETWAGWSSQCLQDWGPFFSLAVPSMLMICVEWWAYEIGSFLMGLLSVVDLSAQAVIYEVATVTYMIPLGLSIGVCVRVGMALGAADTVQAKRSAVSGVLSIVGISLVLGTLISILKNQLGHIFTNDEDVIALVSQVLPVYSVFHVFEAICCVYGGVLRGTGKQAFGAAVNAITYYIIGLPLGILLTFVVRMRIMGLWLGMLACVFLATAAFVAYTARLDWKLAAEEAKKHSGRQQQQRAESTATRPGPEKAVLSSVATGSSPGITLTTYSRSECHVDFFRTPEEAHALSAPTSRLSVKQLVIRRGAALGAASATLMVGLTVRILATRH
(§2) Cells were plated onto standard 24-well tissue culture plates in cell culture medium 1 to 3 days before the experiment. MATE1 and MATE2-K and control cells were incubated with butyric acid (10 mM) for 24 hours before the experiment to inhibit suppression of the transporter.

The target of the next data set is T2, MATE1 (Homo sapiens, UniProt Q96FL8).
T2 sequence (Q96FL8 1-570): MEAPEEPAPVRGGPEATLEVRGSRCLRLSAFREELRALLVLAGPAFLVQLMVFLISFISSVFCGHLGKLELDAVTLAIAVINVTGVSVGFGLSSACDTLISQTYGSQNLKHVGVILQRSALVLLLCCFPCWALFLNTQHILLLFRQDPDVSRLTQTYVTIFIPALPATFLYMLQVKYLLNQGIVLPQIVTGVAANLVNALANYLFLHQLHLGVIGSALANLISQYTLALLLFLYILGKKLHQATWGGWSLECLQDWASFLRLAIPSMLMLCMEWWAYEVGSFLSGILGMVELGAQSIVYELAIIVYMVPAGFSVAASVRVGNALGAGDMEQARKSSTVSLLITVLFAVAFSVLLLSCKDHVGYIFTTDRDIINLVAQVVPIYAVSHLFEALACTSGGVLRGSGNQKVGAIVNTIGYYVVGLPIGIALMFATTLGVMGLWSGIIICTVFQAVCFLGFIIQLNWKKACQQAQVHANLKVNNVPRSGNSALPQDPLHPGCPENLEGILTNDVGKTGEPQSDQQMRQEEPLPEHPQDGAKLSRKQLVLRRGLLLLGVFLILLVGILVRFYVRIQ
How it is done: as §1, §2

A further data set has as its target P-gp (Homo sapiens, UniProt P08183). Nature of the data set: P-gp inhibition: bidirectional transport of digoxin across Caco-2 cells.

Like-named read-outs stand apart in the source and are kept apart here.

P-gp, sequence (P08183 whole entry): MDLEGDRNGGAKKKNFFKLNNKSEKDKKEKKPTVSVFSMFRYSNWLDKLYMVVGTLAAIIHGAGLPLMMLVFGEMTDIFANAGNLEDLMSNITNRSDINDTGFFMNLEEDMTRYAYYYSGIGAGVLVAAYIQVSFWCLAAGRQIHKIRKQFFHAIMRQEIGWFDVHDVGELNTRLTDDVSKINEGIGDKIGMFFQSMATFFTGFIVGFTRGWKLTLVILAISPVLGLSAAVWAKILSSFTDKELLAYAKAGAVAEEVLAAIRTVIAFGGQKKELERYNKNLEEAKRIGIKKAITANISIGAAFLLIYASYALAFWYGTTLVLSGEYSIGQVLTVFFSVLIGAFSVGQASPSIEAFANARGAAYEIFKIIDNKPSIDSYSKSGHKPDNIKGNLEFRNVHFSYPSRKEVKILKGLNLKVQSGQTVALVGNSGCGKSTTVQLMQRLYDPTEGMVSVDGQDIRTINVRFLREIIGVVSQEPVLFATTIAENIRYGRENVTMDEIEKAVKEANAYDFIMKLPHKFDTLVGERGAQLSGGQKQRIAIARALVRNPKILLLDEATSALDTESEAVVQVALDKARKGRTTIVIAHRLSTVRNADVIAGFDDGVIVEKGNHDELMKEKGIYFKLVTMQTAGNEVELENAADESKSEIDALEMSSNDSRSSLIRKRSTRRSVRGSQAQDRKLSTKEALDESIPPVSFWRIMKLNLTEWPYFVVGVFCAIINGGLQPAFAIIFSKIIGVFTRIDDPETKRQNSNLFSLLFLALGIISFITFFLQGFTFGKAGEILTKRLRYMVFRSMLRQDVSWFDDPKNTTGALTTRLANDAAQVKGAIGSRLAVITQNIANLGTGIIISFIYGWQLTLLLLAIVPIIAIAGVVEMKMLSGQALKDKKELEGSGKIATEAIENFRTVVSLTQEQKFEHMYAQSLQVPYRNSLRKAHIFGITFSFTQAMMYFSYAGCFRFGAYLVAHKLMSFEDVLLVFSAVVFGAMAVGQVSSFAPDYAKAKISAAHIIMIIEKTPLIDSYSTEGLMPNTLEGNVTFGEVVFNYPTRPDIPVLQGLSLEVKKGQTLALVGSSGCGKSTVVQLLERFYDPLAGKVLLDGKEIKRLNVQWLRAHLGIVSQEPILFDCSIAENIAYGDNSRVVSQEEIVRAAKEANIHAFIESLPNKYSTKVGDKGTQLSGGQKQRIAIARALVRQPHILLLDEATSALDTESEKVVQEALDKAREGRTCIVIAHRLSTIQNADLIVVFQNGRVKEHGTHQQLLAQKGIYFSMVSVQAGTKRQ

Turning to `Cc1cccc(C)c1OCC(=O)N[C@@H](Cc1ccccc1)[C@@H](O)C[C@H](Cc1ccccc1)NC(=O)[C@H](C(C)C)N1CCCNC1=O` [Lopinavir], the “Papp Apical to basal (Average ± SD)” value at BCRP is 3.23e-05 cm/s; on BCRP (MDCK), 13.3 ± 10.0 ×10^−6 cm/sec. Moreover, the “Papp Basal to apical (Average ± SD)” value at BCRP is recorded as 37.6 ± 1.6 ×10^−6 cm/sec; at BCRP (MDCK), 20.9 ± 4.7 ×10^−6 cm/sec.

Consider `CCc1nc(N)nc(N)c1-c1ccc(Cl)cc1` [Pyrimethamine], for which the “% control” value at MATE2-K (inhibitor 0.3 μM) is 50.6%; on MATE1 (HEK293 cells, inhibitor 0.1 μm) it was 14.2%.

As to `C/C=C/C[C@@H](C)C(=O)[C@H]1C(=O)N[C@@H](C(C)C)C(=O)N(C)CC(=O)N(C)[C@@H](CC(C)C)C(=O)N[C@@H](C(C)C)C(=O)N(C)[C@@H](CC(C)C)C(=O)N[C@@H](C)C(=O)N[C@H](C)C(=O)N(C)[C@@H](CC(C)C)C(=O)N(C)[C@@H](CC(C)C)C(=O)N(C)[C@@H](C(C)C)C(=O)N1C` [Valspodar], at P-gp, the “Papp A:B (Average ± SD)” value was 9.12 ± 1.34 ×10^−6 cm/sec and the “Papp B:A (Average ± SD)” value is given as 10.0 ± 2.5 ×10^−6 cm/sec.

With `CN/C(=N/CCSCc1nc[nH]c1C)NC#N` [Cimetidine], at MATE2-K (MATE2-K HEK293 cells, inhibitor 300 μM), the “Uptake, MATE2-K (Average ± SD)” value stood at 32.3 ± 11.7 pmol/mg protein. Moreover, the “% control” value was 18.1% on MATE2-K (inhibitor 300 μM) and 19.3% at MATE1 (HEK293 cells, inhibitor 10 μm). The “Background corrected uptake rate” value at MATE2-K (inhibitor 300 μM) came to 4.99 pmol/mg/min; at MATE1 (HEK293 cells, inhibitor 10 μm), 16.0 pmol/mg/min. Besides, the “Uptake, Control (Average ± SD)” value at MATE2-K (control HEK293 cells, inhibitor 300 μM) stood at 7.34 ± 0.20 pmol/mg protein; at MATE1 (control HEK293 cells, inhibitor 10 μm), 5.20 ± 0.63 pmol/mg protein. In addition, the “Uptake, MATE1 (Average ± SD)” value at MATE1 (MATE1 HEK293 cells, inhibitor 10 μm) was found to be 85.2 ± 7.8 pmol/mg protein.

The values above are taken from patent US20200170975A1 (Strongbridge Dublin Limited, priority 2018, published 2020).
